# According to patent US7671201B2, “Phenyl substituted cyclic derivatives” (priority 2003, dated 2010):
# Test system: tobacco budworm (Heliothis virescens [Fabricius])
# Details: 0.25 millimolar on the surface of the diet, second instar larvae, five-day exposure; for Percent Mortality: compared to total number of insects infested; for Percent Growth Inhibition: inhibition of insect weight relative to untreated controls
# Method: Candidate insecticides were evaluated for activity against the tobacco budworm (Heliothis virescens [Fabricius]) in a surface-treated diet test.
# In this test one mL of molten (65-70° C.) wheat germ-based artificial diet was pipetted into each well of a four by six (24 well) multi-well plate (ID#430345-15.5 mm dia.×17.6 mm deep; Corning Costar Corp., One Alewife Center, Cambridge, Mass. 02140). The diet was allowed to cool to ambient temperature before treatment with candidate insecticide.
# The robot subsequently pipetted 40 microliters of the so-prepared solution onto the surface of the diet in each of three wells in the 24 multi-well plate. The process was repeated with solutions of seven other candidate insecticides. […] Appropriate untreated controls containing only DMSO on the diet surface were also included in this test.
# For evaluations of the insecticidal activity of a candidate insecticide at varying rates of application, the test was established as described above using sub-multiples of the standard 50 millimolar DMSO solution of candidate insecticide. […] In these evaluations there were six replicates of each rate of application placed on the surface of the diet in the 24 multi-well plate, for a total of four rates of application of candidate insecticide in each plate.
# In each well of the test plate was placed one second instar tobacco budworm larvae, each weighing approximately five milligrams. After the larvae were placed in each well, the plate was sealed with clear polyfilm adhesive tape. The tape over each well was perforated to ensure an adequate air supply. The plates were then held in a growth chamber at 25° C. and 60% relative humidity for five days (light 14 hours/day).
# After the five-day exposure period insecticidal activity for each rate of application of candidate insecticide was assessed as percent inhibition of insect weight relative to the weight of insects from untreated controls, and percent mortality when compared to the total number of insects infested.
Molecule,Percent Mortality,Percent Growth Inhibition
"2-{2-[3,4-dichlorophenyl)piperazinyl]ethoxy}-5-(3,3-dichloroprop-2-enyloxy)-1,3-dichlorobenzene [Compound 20]",100%,100%
"O=S(=O)(c1ccc(C(F)(F)F)cc1)N1CCN(c2c(Cl)cc(OCC=C(Cl)Cl)cc2Cl)CC1 [Compound 26, 5-(3,3-dichloroprop-2-enyloxy)-1,3-dichloro-2-{4-[4-(trifluoromethyl)phenylsulfonyl]piperazinyl}benzene]",100%,100%
"OC1(c2ccc(Cl)cc2)CCN(CCOc2c(Cl)cc(OCC=C(Cl)Cl)cc2Cl)CC1 [Compound 35, 1-{2-[4-(3,3-dichloroprop-2-enyloxy)-2,6-dichlorophenoxy]ethyl}-4-(4-chlorophenyl)piperidin-4-ol]",100%,100%
"tert-butyl 4-{[4-(3,3-dichloroprop-2-enyloxy)-2,6-dichlorophenoxy]methyl}piperidinecarboxylate [Compound 4]",100%,100%
